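Here, GI50 denotes the concentration required for 50% inhibition of growth. TGI: concentration producing complete growth inhibition.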
Columns and labels:
Experiment in all cases: NCI-60 cell line screen, 384-well format
786-0 renal = system: 786-0 renal
A498 renal = system: A498 renal
A549 NSCLC = system: A549 NSCLC
ACHN renal = system: ACHN renal
BT-549 breast = system: BT-549 breast
CAKI-1 renal = system: CAKI-1 renal
CCRF-CEM leukemia = system: CCRF-CEM leukemia
COLO 205 colon = system: COLO 205 colon
DU-145 prostate = system: DU-145 prostate
EKVX NSCLC = system: EKVX NSCLC
HCT-116 colon = system: HCT-116 colon
HCT-15 colon = system: HCT-15 colon
HL-60(TB) leukemia = system: HL-60(TB) leukemia
HOP-62 NSCLC = system: HOP-62 NSCLC
HOP-92 NSCLC = system: HOP-92 NSCLC
HS 578T breast = system: HS 578T breast
IGROV1 ovarian = system: IGROV1 ovarian
K-562 leukemia = system: K-562 leukemia
KM12 colon = system: KM12 colon
LOX IMVI melanoma = system: LOX IMVI melanoma
MALME-3M melanoma = system: MALME-3M melanoma
MCF7 breast = system: MCF7 breast
MDA-MB-231 breast = system: MDA-MB-231 breast
MDA-MB-435 melanoma = system: MDA-MB-435 melanoma
MDA-MB-468 breast = system: MDA-MB-468 breast
MOLT-4 leukemia = system: MOLT-4 leukemia
NCI-H23 lung = system: NCI-H23 lung
NCI-H322M lung = system: NCI-H322M lung
NCI-H460 NSCLC = system: NCI-H460 NSCLC
NCI-H522 lung = system: NCI-H522 lung
NCI/ADR-RES ovarian = system: NCI/ADR-RES ovarian
OVCAR-3 ovarian = system: OVCAR-3 ovarian
OVCAR-4 ovarian = system: OVCAR-4 ovarian
OVCAR-5 ovarian = system: OVCAR-5 ovarian
PC-3 prostate = system: PC-3 prostate
RPMI-8226 leukemia = system: RPMI-8226 leukemia
RXF 393 renal = system: RXF 393 renal
SF-268 CNS = system: SF-268 CNS
SF-539 CNS = system: SF-539 CNS
SK-MEL-2 melanoma = system: SK-MEL-2 melanoma
SK-MEL-28 melanoma = system: SK-MEL-28 melanoma
SK-MEL-5 melanoma = system: SK-MEL-5 melanoma
SK-OV-3 ovarian = system: SK-OV-3 ovarian
SN12C renal = system: SN12C renal
SNB-19 CNS = system: SNB-19 CNS
SR leukemia = system: SR leukemia
SW-620 colon = system: SW-620 colon
T-47D breast = system: T-47D breast
TK-10 renal = system: TK-10 renal
U251 glioblastoma = system: U251 glioblastoma
UO-31 renal = system: UO-31 renal

`COc1ccccc1S(=O)(=O)Nc1ccc2c(c1)CN(C)C(=O)N2` was tested, and the GI50 ([…]-0 renal) was 16.7 nM, the TGI (786-0 renal) was 15900 nM and the GI50 (A498 renal) was < 10 nM. The TGI (A498 renal) was 60700 nM, the GI50 (A549 NSCLC) was 33.1 nM and the TGI (A549 NSCLC) was > 100000 nM. For the same compound, the GI50 (ACHN renal) was 15.3 nM, the TGI (ACHN renal) was > 100000 nM and the GI50 (BT-549 breast) was < 10 nM. For the same compound, the TGI (BT-549 breast) was 32.4 nM, the GI50 (CAKI-1 renal) was < 10 nM and the TGI (CAKI-1 renal) was > 100000 nM. The GI50 (CCRF-CEM leukemia) was < 10 nM, the TGI (CCRF-CEM leukemia) was < 10 nM and the GI50 (COLO 205 colon) was < 10 nM. It also gave a TGI (COLO 205 colon) of 62.6 nM, a GI50 (DU-145 prostate) of 20.2 nM and a TGI (DU-145 prostate) of 58.1 nM. The GI50 (EKVX NSCLC) was 20.5 nM, the TGI (EKVX NSCLC) was > 100000 nM and the GI50 (HCT-116 colon) was 14.5 nM. The TGI (HCT-116 colon) was 77.3 nM, the GI50 (HCT-15 colon) was 12.6 nM and the TGI (HCT-15 colon) was 46.9 nM. For the same compound, the GI50 (HL-60(TB) leukemia) was < 10 nM, the TGI (HL-60(TB) leukemia) was 13.1 nM and the GI50 (HOP-62 NSCLC) was 20.8 nM. The TGI (HOP-62 NSCLC) was > 100000 nM, the GI50 (HOP-92 NSCLC) was < 10 nM and the TGI (HOP-92 NSCLC) was 66800 nM. The GI50 (HS 578T breast) was < 10 nM, the TGI (HS 578T breast) was 19.2 nM and the GI50 (IGROV1 ovarian) was 22.5 nM. For the same compound, the TGI (IGROV1 ovarian) was 73600 nM, the GI50 (K-562 leukemia) was < 10 nM and the TGI (K-562 leukemia) was 18 nM. It also gave a GI50 (KM12 colon) of 18.8 nM, a TGI (KM12 colon) of 71.4 nM and a GI50 (LOX IMVI melanoma) of 21.3 nM. The TGI (LOX IMVI melanoma) was 87.1 nM, the GI50 (MALME-3M melanoma) was < 10 nM and the TGI (MALME-3M melanoma) was > 100000 nM. For the same compound, the GI50 (MCF7 breast) was 35.9 nM, the TGI (MCF7 breast) was 12300 nM and the GI50 (MDA-MB-231 breast) was 32.4 nM. For the same compound, the TGI (MDA-MB-231 breast) was > 100000 nM, the GI50 (MDA-MB-435 melanoma) was < 10 nM and the TGI (MDA-MB-435 melanoma) was < 10 nM. For the same compound, the GI50 (MDA-MB-468 breast) was 17.1 nM, the TGI (MDA-MB-468 breast) was 34.7 nM and the GI50 (MOLT-4 leukemia) was < 10 nM. It also gave a TGI (MOLT-4 leukemia) of 19.5 nM, a GI50 (NCI-H23 lung) of 16.3 nM and a TGI (NCI-H23 lung) of 53.7 nM. The GI50 (NCI-H322M lung) was 18.8 nM, the TGI (NCI-H322M lung) was > 100000 nM and the GI50 (NCI-H460 NSCLC) was 21.3 nM. The TGI (NCI-H460 NSCLC) was 45.3 nM, the GI50 (NCI-H522 lung) was < 10 nM and the TGI (NCI-H522 lung) was < 10 nM. It also gave a GI50 (NCI/ADR-RES ovarian) of 12 nM, a TGI (NCI/ADR-RES ovarian) of 27.1 nM and a GI50 (OVCAR-3 ovarian) of 12 nM. For the same compound, the TGI (OVCAR-3 ovarian) was 33.2 nM, the GI50 (OVCAR-4 ovarian) was 16.2 nM and the TGI (OVCAR-4 ovarian) was > 100000 nM. The GI50 (OVCAR-5 ovarian) was 26 nM, the TGI (OVCAR-5 ovarian) was > 100000 nM and the GI50 (PC-3 prostate) was < 10 nM. For the same compound, the TGI (PC-3 prostate) was > 100000 nM, the GI50 (RPMI-8226 leukemia) was 19.5 nM and the TGI (RPMI-8226 leukemia) was 37.3 nM. For the same compound, the GI50 (RXF 393 renal) was < 10 nM, the TGI (RXF 393 renal) was < 10 nM and the GI50 (SF-268 CNS) was 20.3 nM. The TGI (SF-268 CNS) was 134 nM, the GI50 (SF-539 CNS) was 14.4 nM and the TGI (SF-539 CNS) was 37.6 nM. For the same compound, the GI50 (SK-MEL-2 melanoma) was 18.1 nM, the TGI (SK-MEL-2 melanoma) was 39.3 nM and the GI50 (SK-MEL-28 melanoma) was < 10 nM. The TGI (SK-MEL-28 melanoma) was > 100000 nM, the GI50 (SK-MEL-5 melanoma) was < 10 nM and the TGI (SK-MEL-5 melanoma) was 12.9 nM. For the same compound, the GI50 (SK-OV-3 ovarian) was < 10 nM, the TGI (SK-OV-3 ovarian) was 7040 nM and the GI50 (SN12C renal) was 24.7 nM. The TGI (SN12C renal) was > 100000 nM, the GI50 (SNB-19 CNS) was 19.8 nM and the TGI (SNB-19 CNS) was 20000 nM. The GI50 (SR leukemia) was < 10 nM, the TGI (SR leukemia) was < 10 nM and the GI50 (SW-620 colon) was 31.1 nM. For the same compound, the TGI (SW-620 colon) was > 100000 nM, the GI50 (T-47D breast) was 17200 nM and the TGI (T-47D breast) was > 100000 nM. The GI50 (TK-10 renal) was < 10 nM, the TGI (TK-10 renal) was > 100000 nM and the GI50 (U251 glioblastoma) was 26.7 nM. For the same compound, the TGI (U251 glioblastoma) was 82.2 nM, the GI50 (UO-31 renal) was 20.6 nM and the TGI (UO-31 renal) was > 100000 nM.

— PubChem BioAssay (NCI)
